Test system: PDGF-R
Experiment: PDGF-R Assay (cellular ELISA, U1242 cells)
Type: cell-based
Set-up: concentration or dose not given beside the values
Details: protocol P.119
Method in brief: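 Cellular ELISA for receptor autophosphorylation: after 2 hr test-compound treatment of serum-free U1242 cells at 37°C, ligand is added for 5–10 min, cells are lysed (HNTG) and receptor captured by specific antibody. Anti-phosphotyrosine plus secondary antibody with ABTS colour read at 410/630 nm, compared with compound-free control cells.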

## Cc1c(Br)cc(Br)c2c1C(=Cc1ccc(CO)o1)C(=O)N2 [10739/H11]
  PDGF Kinase % Inhibition (P.119): 4.2%
